Data as given in ChEMBL document CHEMBL1781940, “Cytotoxic and PPARs transcriptional activities of sterols from the Vietnamese soft coral Lobophytum laevigatum” (Bioorg Med Chem Lett, 2011).
The source made the active and inactive calls. The rule behind the calls is not given here.

What was measured:
HL-60 [1] = assay: Cytotoxicity against human HL60 cells after 24 hrs by MTT assay; type: functional, cell-based; details: for IC50: HL-60, 24 h
HCT-116 [2] = assay: Induction of apoptosis in human HCT116 cells assessed as chromatin condensation apoptotic bodies at 3.2 uM after 24 hrs using Hoechst 33342 staining and fluorescent microscopy; type: functional, cell-based
HCT-116 [3] = assay: Cytotoxicity against human HCT116 cells after 24 hrs by MTT assay; type: functional, cell-based; details: for IC50: HCT-116, 24 h
A549 [4] = assay: Induction of apoptosis in human A549 cells assessed as chromatin condensation apoptotic bodies at 4.5 uM after 24 hrs using Hoechst 33342 staining and fluorescent microscopy; type: functional, cell-based
HL-60 [5] = assay: Induction of apoptosis in human HL60 cells assessed as chromatin condensation apoptotic bodies at 5.6 uM after 24 hrs using Hoechst 33342 staining and fluorescent microscopy; type: functional, cell-based
A549 [6] = assay: Cytotoxicity against human A549 cells after 24 hrs by MTT assay; type: functional, cell-based; details: for IC50: A549, 24 h
HepG2 [7] = assay: Transactivation of PPAR transcriptional activity expressed in human HepG2 cells co-expressing PPRE-Luc after 24 hrs by luciferase reporter gene assay relative to negative control; type: cell-based
HepG2 [8] = assay: Transactivation of PPAR transcriptional activity expressed in human HepG2 cells co-expressing PPRE-Luc at 10 uM after 24 hrs by luciferase reporter gene assay relative to negative control; type: cell-based
HepG2 [9] = assay: Transactivation of PPAR transcriptional activity expressed in human HepG2 cells co-expressing PPRE-Luc at 1 uM after 24 hrs by luciferase reporter gene assay relative to negative control; type: cell-based

| SMILES | IC50 (HL-60 [1]) [µM] | Activity (HCT-116 [2]) | IC50 (HCT-116 [3]) [µM] | Activity (A549 [4]) | Activity (HL-60 [5]) | IC50 (A549 [6]) [µM] | Activity (HepG2 [7]) | Activity (HCT-116 [3]) | fold change (FC) (HepG2 [8]) | Activity (HL-60 [1]) | fold change (FC) (HepG2 [9]) | Activity (A549 [6]) |
| --- | --- | --- | --- | --- | --- | --- | --- | --- | --- | --- | --- | --- |
| O=C1c2c(O)ccc(O)c2C(=O)c2c(NCCNCCO)ccc(NCCNCCO)c21 [MITOXANTRONE] | 8.2 | – | – | – | – | – | – | – | – | – | – | – |
| CC(C)[C@H](C)[C@H](C)[C@@H](O)[C@]1(C)O[C@]12CC[C@H]1[C@@H]3CC[C@H]4[C@H](C)[C@@H](O)CC[C@]4(C)[C@H]3CC[C@@]12C [LOBOPHYTOSTEROL] | 5.6 | Active | 3.2 | Active | Active | 4.5 | – | – | – | – | – | – |
| CC(=O)[C@H]1CC[C@H]2[C@@H]3CC=C4C[C@@H](O)CC[C@]4(C)[C@H]3CC[C@]12C | – | – | – | – | – | – | Dose-dependent effect | inactive | 2.1 | inactive | 1.6 | inactive |
| CC(C)[C@@H](C)CC[C@@H](C)[C@H]1CC[C@H]2[C@@H]3[C@H](O)C=C4C[C@@H](O)CC[C@]4(C)[C@H]3CC[C@]12C | – | – | – | – | – | – | Dose-dependent effect | inactive | 2.5 | inactive | 1.2 | inactive |
| C[C@H](CC[C@H](C)C(C)(C)O)[C@H]1CC[C@H]2[C@@H]3CC=C4C[C@@H](O)CC[C@]4(C)[C@H]3CC[C@]12C | > 20 | – | 18.1 | – | – | > 20 | – | – | – | – | – | – |
| CC(C)CCC[C@@H](C)[C@H]1CC[C@H]2[C@@H]3CC=C4C[C@@H](O)CC[C@]4(C)[C@H]3CC[C@]12C | – | – | – | – | – | – | – | inactive | – | inactive | – | inactive |
| C[C@H]1C[C@]2(O[C@H]3C[C@H]4[C@@H]5CC=C6C[C@@H](O)CC[C@]6(C)[C@H]5CC[C@]4(C)[C@H]3[C@@]2(C)O)OC1(C)C | > 20 | – | 6.9 | – | – | > 20 | Dose-dependent effect | – | 2 | – | 1.4 | – |
